Key:
mice = assay: acute toxicity (LD50), intraperitoneal administration in mice; type: in vivo; conditions: mice (male, 20 g)
Description: Representative LD50 values, for example, for N^2 -(6,7-dimethoxy-2-naphthylsulfonyl)-L-arginyl-N-butylalanine and N^2 -(4,6-dimethoxy-2-naphthylsulfonyl)-L-arginyl-N-cyclohexylmethylalanine are above 1,500 milligrams per kilogram each.

thrombin = target: T1, thrombin (Bos taurus, UniProt P00735); assay: fibrinogen coagulation time (thrombin added to bovine fibrinogen solution); type: biochemical; conditions: thrombin 5 units/ml, borate saline buffer pH 7.4, 25° C, normal coagulation time 50-55 seconds prolonged to 100-110 seconds
T1 construct: purchased Mochida Pharmaceutical Co., Ltd
Procedure: The measurement of the fibrinogen coagulation time was conducted as follows:
Immediately after mixing, the reaction mixture was transferred from the ice bath to a bath maintained at 25° C. Coagulation times were taken as the period between the time of transference to the 25° C bath and the time of the first appearance of fibrin threads.
The term "concentration required to prolong the coagulation time by a factor of two" is the concentration of an active ingredient required to prolong the normal coagulation time 50-55 seconds to 100-110 seconds.

Row | SMILES | Concentration required to prolong the coagulation time by a factor of two (thrombin) | acute toxicity values (LD50) (mice)
1 | CCCCN(C(=O)[C@H](CCCNC(=N)N)NS(=O)(=O)c1ccc2cc(OC)c(OC)cc2c1)[C@@H](C)C(=O)O [compound 2, N^2-(6,7-dimethoxy-2-naphthylsulfonyl)-L-arginyl-N-butylalanine] |  | above 1,500 milligrams per kilogram
2 | CCCCCN(C(=O)[C@H](CCCNC(=N)N)NS(=O)(=O)c1ccc2cc(OC)c(OC)cc2c1)[C@@H](C)C(=O)O [compound 4, N^2-(6,7-dimethoxy-2-naphthylsulfonyl)-L-arginyl-N-pentylalanine] | 2.0 µM | 
3 | COc1ccc2cc(S(=O)(=O)N[C@@H](CCCNC(=N)N)C(=O)N(CC3CCCCC3)[C@@H](C)C(=O)O)cc(OC)c2c1 [compound 12, N^2-(4,6-dimethoxy-2-naphthylsulfonyl)-L-arginyl-N-cyclohexylmethylalanine] | 4.5 µM | above 1,500 milligrams per kilogram
4 | COc1cc2ccc(S(=O)(=O)N[C@@H](CCCNC(=N)N)C(=O)N(CCc3ccccc3)[C@@H](C)C(=O)O)cc2cc1OC [compound 8, N^2-(6,7-dimethoxy-2-naphthylsulfonyl)-L-arginyl-N-phenethylalanine] | 1.5 µM | 
5 | COc1cc2ccc(S(=O)(=O)N[C@@H](CCCNC(=N)N)C(=O)N(Cc3ccccc3)[C@@H](C)C(=O)O)cc2cc1OC [compound 6, N^2-(6,7-dimethoxy-2-naphthylsulfonyl)-L-arginyl-N-benzylalanine] | 2.5 µM | 

The next lines start with results.

Row | Concentration required to prolong the coagulation time by a factor of two (thrombin) | SMILES | acute toxicity values (LD50) (mice)
6 | 2 µM | COc1cc2ccc(S(=O)(=O)N[C@@H](CCCNC(=N)N)C(=O)N(C)[C@@H](Cc3ccccc3)C(=O)O)cc2cc1OC [compound 18, N^2-(6,7-dimethoxy-2-naphthylsulfonyl)-L-arginyl-N-methylphenylalanine] | 
7 | 15 µM | CCC[C@H](NC(=O)[C@H](CCCNC(=N)N)NS(=O)(=O)c1ccc2cc(OC)c(OC)cc2c1)C(=O)O [compound 21, N^2-(6,7-dimethoxy-2-naphthylsulfonyl)-L-arginylnorvaline] | 
8 | 2.5 µM | COc1ccc2ccc(S(=O)(=O)N[C@@H](CCCNC(=N)N)C(=O)N(C)[C@@H](Cc3ccccc3)C(=O)O)cc2c1 [compound 20, N^2-(7-methoxy-2-naphthylsulfonyl)-L-arginyl-N-methyl-phenylalanine] | 
9 | 5 µM | COCCN(C(=O)[C@H](CCCNC(=N)N)NS(=O)(=O)c1ccc2cc(OC)c(OC)cc2c1)[C@@H](C)C(=O)O [compound 15, N^2-(6,7-dimethoxy-2-naphthylsulfonyl)-L-arginyl-N-(2-methoxyethyl)alanine] | 

Reference: US4108986A, “N^2 -Arylsulfonyl-L-argininamides and the pharmaceutically acceptable salts thereof” (Mitsubishi Chemical Industries Limited, priority 1974, dated 1978)
